Usually pIC50 stands for −log10 of the IC50, conventionally taken in molar units.

pIC50: −log10 of the molar value. Read-outs that look alike come from different tables or passages of the source.

The source of these data is US10821115B2, “Compounds that inhibit Mcl-1 protein” (priority 2017, dated 2020).

In assay [1] the target is recombinant human Mcl-1 (residues 171-327) / Bim interaction (Homo sapiens (Human), UniProt Q07820). In words: biochemical. In kind it is binding. The note with it: read-out: Mcl-1 HTRF IC50. For orientation: TR-FRET usually uses a lanthanide donor and a delayed reading to cut background.
The test system of assay [2] is human multiple myeloma cell line, OPM-2. Briefly: Cell viability assay (OPM-2 10 FBS), CellTiter-Glo. In kind it is cell-based. The essentials: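 OPM-2 cells at 3000 cells/well in RPMI 1640 with 10% FBS were exposed to serially diluted compounds for 16 h at 37 °C, 5% CO2.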
Background: ATP-based viability assays read luminescence as a measure of living cells.

[3] abbreviates: TR-FRET, Mcl-1(171-327) / biotin-Bim (51-76).
Setting [4] is: read-out: OPM-2 10% FBS IC50 IP, OPM-2 cells, 10% FBS, 16 h, CellTiter-Glo.
The mark [5] stands for this setting: Homo sapiens, OPM-2, 16 h, read-out: OPM-2 10% FBS IC50 IP, OPM-2 cells, 10% FBS, 16 h, CellTiter-Glo.
Where [6] appears, read: 0.1 nM Mcl-1(171-327), 0.05 nM biotin-Bim (51-76).
Where [7] appears, read: Homo sapiens, OPM-2, 16 h, read-out: OPM-2 10% FBS IC50 IP, OPM-2 cells, 10% FBS, 16 h incubation.

Chain of recombinant human Mcl-1 (residues 171-327) / Bim interaction (Q07820 171-327): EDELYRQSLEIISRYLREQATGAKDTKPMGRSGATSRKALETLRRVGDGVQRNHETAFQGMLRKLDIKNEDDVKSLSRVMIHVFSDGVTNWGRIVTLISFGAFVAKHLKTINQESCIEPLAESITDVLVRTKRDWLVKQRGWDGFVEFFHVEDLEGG

As to `C[C@@H]1[C@@H](C)CCC[C@@](O)(CC(=O)N2CCCC2)[C@@H]2CC[C@H]2CN2C[C@@]3(CCCc4cc(Cl)ccc43)COc3ccc(cc32)C(=O)NS1(=O)=O` [Example 100108, (1S,3′R,6′R,7′R,11′S,12′R)-6-chloro-7′-hydroxy-11′,12′-dimethyl-7′-(2-oxo-2-(1-pyrrolidinyl)ethyl)-3,4-dihydro-2H,15′H-spiro[naphthalene-1,22′-[20]oxa[13]thia[1,14]diazatetracyclo [14.7.2.0~3,6~.0~19,24~]pentacosa[16,18,24]trien]-15′-one 13′,13′-dioxide], the figures for the pIC50 in assay [1] (setting [3]) and in assay [2] (setting [4]) were 9.36 and 6.45, respectively.

For the molecule `Cc1nccnc1C[C@@]1(O)/C=C/C[C@H](C)[C@@H](C)S(=O)(=O)NC(=O)c2ccc3c(c2)N(C[C@@H]2CC[C@H]21)C[C@@]1(CCCc2cc(Cl)ccc21)CO3` [Example 100526, (1S,3′R,6′R,7′R,8′E,11′S,12′R)-6-chloro-7′-hydroxy-11′,12′-dimethyl-7′-((3-methyl-2-pyrazinyl)methyl)-3,4-dihydro-2H,15′H-spiro[naphthalene-1,22′-[20]oxa[13]thia[1,14]diazatetracyclo [14.7.2.0~3,6~.0~19,24~]pentacosa[8,16,18,24]tetraen]-15′-one 13′,13′-dioxide], the negative logarithm of the IC50 (pIC50) in assay [1] (setting [3]) was 9.41; in assay [2] (setting [5]) it was 6.08.

With `COCC[C@@H]1[C@@H](C)C/C=C/[C@@](CN2CCN(C(C)C)CC2)(OC)[C@@H]2CC[C@H]2CN2C[C@@]3(CCCc4cc(Cl)ccc43)COc3ccc(cc32)C(=O)NS1(=O)=O` [Example 188, (1S,3′R,6′R,7′R,8′E,11′S,12′R)-6-chloro-7′-methoxy-12′-(2-methoxyethyl)-11′-methyl-7′-((4-(1-methylethyl)-1-piperazinyl)methyl)-3,4-dihydro-2H,15′H-spiro[naphthalene-1,22′-[20]oxa[13]thia[1,14]diazatetracyclo [14.7.2.0~3,6~.0~19,24~]pentacosa[8,16,18,24]tetraen]-15′-one 13′,13′-dioxide], the figures for the negative-log IC50 (pIC50) in assay [1] (setting [6]) and in assay [2] (setting [7]) were 10.08 and 7.42, respectively.

In the case of `CO[C@]1(CC=O)/C=C/C[C@H](C)[C@@H](C)S(=O)(=O)NC(=O)c2ccc3c(c2)N(C[C@@H]2CC[C@H]21)C[C@@]1(CCCc2cc(Cl)ccc21)CO3` [Example 100322, ((1S,3′R,6′R,7′R,8′E,11′S,12′R)-6-chloro-7′-methoxy-11′,12′-dimethyl-13′,13′-dioxido-15′-oxo-3,4-dihydro-2H-spiro[naphthalene-1,22′-[20]oxa[13]thia[1,14]diazatetracyclo [14.7.2.0~3,6~.0~19,24~]pentacosa[8,16,18,24]tetraen]-7′-yl)acetaldehyde], the negative-log IC50 (pIC50) in assay [1] (setting [3]) was 8.65; in assay [2] (setting [5]), 5.81.

On to `COC(=O)[C@]1(O)/C=C/C[C@H](C)[C@@H](C)S(=O)(=O)NC(=O)c2ccc3c(c2)N(C[C@@H]2CC[C@H]21)C[C@@]1(CCCc2cc(Cl)ccc21)CO3` [Example 100061, methyl (1S,3′R,6′R,7′S,8′E,11′S,12′R)-6-chloro-7′-hydroxy-11′,12′-dimethyl-15′-oxo-3,4-dihydro-2H-spiro[naphthalene-1,22′-[20]oxa[13]thia[1,14]diazatetracyclo [14.7.2.0~3,6~.0~19,24~]pentacosa[8,16,18,24]tetraene]-7′-carboxylate 13′,13′-dioxide], for which the negative logarithm of the IC50 (pIC50) is 9.11 in assay [1] (setting [3]) and 6.28 in assay [2] (setting [5]).

Consider `CC[C@@H]1CC/C=C/[C@@](CN2CCN3CCOC[C@@H]3C2)(OC)[C@@H]2CC[C@H]2CN2C[C@@]3(CCCc4cc(Cl)ccc43)COc3ccc(cc32)C(=O)NS1(=O)=O` [Example 30, (1S,3′R,6′R,7′R,8′E,12′R)-6-chloro-12′-ethyl-7′-((9aS)-hexahydropyrazino[2,1-c][1,4]oxazin-8(1H)-ylmethyl)-7′-methoxy-3,4-dihydro-2H,15′H-spiro[naphthalene-1,22′-[20]oxa[13]thia[1,14]diazatetracyclo [14.7.2.0~3,6~.0~19,24~]pentacosa[8,16,18,24]tetraen]-15′-one 13′,13′-dioxide], for which the pIC50 is 9.96 in assay [1] (setting [6]) and 6.78 in assay [2] (setting [7]).

Consider `C[C@@H]1[C@@H](C)C/C=C/[C@]2(CCCO2)[C@@H]2CC[C@H]2CN2C[C@@]3(CCCc4cc(Cl)ccc43)COc3ccc(cc32)C(=O)NS1(=O)=O` (stereo in doubt) [Example 100132], for which the values for the negative logarithm of the IC50 (pIC50) in assay [1] (setting [3]) and in assay [2] (setting [5]) were 9.27 and 6.17, respectively.

For the molecule `CC[C@@]1(O)CCC[C@H](C)[C@@H](C)S(=O)(=O)NC(=O)c2ccc3c(c2)N(C[C@@H]2CC[C@H]21)C[C@@]1(CCCc2cc(Cl)ccc21)CO3` [Example 100079, (1S,3′R,6′R,7′R,11′S,12′R)-6-chloro-7′-ethyl-7′-hydroxy-11′,12′-dimethyl-3,4-dihydro-2H,15′H-spiro[naphthalene-1,22′-[20]oxa[13]thia[1,14]diazatetracyclo [14.7.2.0~3,6~.0~19,24~]pentacosa[16,18,24]trien]-15′-one 13′,13′-dioxide], the figures for the negative-log IC50 (pIC50) in assay [1] (setting [3]) and in assay [2] (setting [5]) were 9.46 and 6.15, respectively.

Regarding `CC[C@@H]1CC/C=C/[C@](C=O)(OC)[C@@H]2CC[C@H]2CN2C[C@@]3(CCCc4cc(Cl)ccc43)COc3ccc(cc32)C(=O)NS1(=O)=O` (single isomer, unassigned) [Example 100580], the negative logarithm of the IC50 (pIC50) in assay [1] (setting [3]) was 9.06; in assay [2] (setting [5]) it was 5.18.

Regarding `CCN(CC)C(=O)C[C@@]1(O)/C=C/C[C@H](C)[C@@H](C)S(=O)(=O)NC(=O)c2ccc3c(c2)N(C[C@@H]2CC[C@H]21)C[C@@]1(CCCc2cc(Cl)ccc21)CO3` (single isomer, unassigned) [Example 100084], the pIC50 was 9.13 in assay [1] (setting [3]) and 5.83 in assay [2] (setting [5]).

Turning to `C[C@@H]1[C@@H](C)C/C=C/[C@](O)(C#CCC2CCOCC2)[C@@H]2CC[C@H]2CN2C[C@@]3(CCCc4cc(Cl)ccc43)COc3ccc(cc32)C(=O)NS1(=O)=O` [Example 100433, (1S,3′R,6′R,7′R,8′E,11′S,12′R)-6-chloro-7′-hydroxy-11′,12′-dimethyl-7′-(3-(tetrahydro-2H-pyran-4-yl)-1-propyn-1-yl)-3,4-dihydro-2H,15′H-spiro[naphthalene-1,22′-[20]oxa[13]thia[1,14]diazatetracyclo [14.7.2.0~3,6~.0~19,24~]pentacosa[8,16,18,24]tetraen]-15′-one 13′,13′-dioxide], the negative logarithm of the IC50 (pIC50) in assay [1] (setting [3]) was 10.59; in assay [2] (setting [5]) it was 6.53.

For the molecule `C[C@@H]1[C@@H](C)C/C=C/[C@@](O)(C#CCN2CCCCC2)[C@@H]2CC[C@H]2CN2C[C@@]3(CCCc4cc(Cl)ccc43)COc3ccc(cc32)C(=O)NS1(=O)=O` [Example 100424, (1S,3′R,6′R,7′S,8′E,11′S,12′R)-6-chloro-7′-hydroxy-11′,12′-dimethyl-7′-(3-(1-piperidinyl)-1-propyn-1-yl)-3,4-dihydro-2H,15′H-spiro[naphthalene-1,22′-[20]oxa[13]thia[1,14]diazatetracyclo [14.7.2.0~3,6~.0~19,24~]pentacosa[8,16,18,24]tetraen]-15′-one 13′,13′-dioxide], the negative-log IC50 (pIC50) in assay [1] (setting [3]) was 9.60; in assay [2] (setting [4]), 6.33.
